# According to patent US6506793B2, “Citral acetal” (Kao Corporation, priority 2000, dated 2003):
# Tested on: smell (isovaleric acid) of the socks
# Experiment: Organoleptic evaluation of smell of socks after application onto a bare foot
# Type: in vivo, human
# Design: key: 5: Strong; 4: Slightly strong; 3: Moderate; 2: Slightly weak; 1: Weak; 0: Does not smell
# Details: 2 g of 0.1% solution in ethanol on a bare foot; smell (isovaleric acid) of socks after 8 hours
# Text: The present compounds 1 to 3 obtained in Examples 1 to 3, as well as commercial citral propylene glycol acetal (CITRAL PGA produced by Inoue Koryo Co., Ltd.) and citral hexylene glycol acetal (CITRAL HGA produced by Inoue Koryo Co., Ltd.) as comparative compounds, were used to prepare 0.1% solutions in ethanol respectively, and 2 g solution was applied onto a bare foot. 2 g ethanol (containing no test sample) was applied onto the other bare foot (blank), then socks were put on the feet respectively, and the extent of smell (isovaleric acid) of the socks after 8 hours was subjected to organoleptic evaluation by one skilled examiner in the following 6-level criteria.
row,SMILES,Strength of Smell
1,"CCCCCCCCOCC1COC(C=C(C)CCC=C(C)C)O1 (centres unmarked) [Present Compound 2, citral n-octyl glyceryl ether acetal]",2
2,"CCCCC(CC)COCC1COC(C=C(C)CCC=C(C)C)O1 (centres unmarked) [Present Compound 3, citral 2-ethyl hexyl glyceryl ether acetal]",1
3,"CCCCCOCC1COC(C=C(C)CCC=C(C)C)O1 (centres unmarked) [Present Compound 1, citral pentyl glyceryl ether acetal]",2
4,"CC(C)=CCC/C(C)=C/C1OCC(C)O1 (centres unmarked) [CITRAL PGA, citral propylene glycol acetal, reference compound]",5
5,"CC(C)=CCCC(C)=CC1OC(C)CC(C)(C)O1 (centres unmarked) [CITRAL HGA, citral hexylene glycol acetal, reference compound]",5
